Assay results: ChEMBL document CHEMBL1629607, “Nalidixic acid disk for laboratory detection of ciprofloxacin resistance in Neisseria meningitidis” (2009)
≈ marks a conversion by molar mass, not a printed value.

How the values were obtained:
Format in all cases: functional
Neisseria meningitidis [1] = assay: Antimicrobial activity against fluoroquinolone-resistant Neisseria meningitidis expressing gyrA mutant at 30 ug by disk diffusion method; conditions: read-out: IZ
Neisseria meningitidis [2] = assay: Antimicrobial activity against fluoroquinolone-susceptible Neisseria meningitidis at 30 ug by disk diffusion method; conditions: read-out: IZ
Neisseria meningitidis [3] = assay: Antimicrobial activity against fluoroquinolone-susceptible Neisseria meningitidis by disk diffusion method; conditions: for MIC: Neisseria meningitidis
Neisseria meningitidis [4] = assay: Antimicrobial activity against fluoroquinolone-resistant Neisseria meningitidis expressing gyrA mutant by disk diffusion method
Neisseria meningitidis [5] = assay: Antimicrobial activity against fluoroquinolone-intermediate Neisseria meningitidis by disk diffusion method

| Structure (SMILES) | zone of inhibition at 30 µg/disc (Neisseria meningitidis [1]) | zone of inhibition at 30 µg/disc (Neisseria meningitidis [2]) | MIC (Neisseria meningitidis [3]) | inhibition zone (IZ) (Neisseria meningitidis [4]) | MIC (Neisseria meningitidis [4]; Neisseria meningitidis) | inhibition zone (IZ) (Neisseria meningitidis [5]) | MIC (Neisseria meningitidis [5]; Neisseria meningitidis) | inhibition zone (IZ) (Neisseria meningitidis [3]) |
| --- | --- | --- | --- | --- | --- | --- | --- | --- |
| CCn1cc(C(=O)O)c(=O)c2ccc(C)nc21 [NALIDIXIC ACID] | < 15 mm | 28 mm | 0.25 µg/mL (≈ 1.08 µM) | – | – | – | – | – |
| O=C(O)c1cn(C2CC2)c2cc(N3CCNCC3)c(F)cc2c1=O [CIPROFLOXACIN] | – | – | ≤ 0.03 µg/mL | 29 mm | ≥ 0.12 µg/mL | 35 mm | 0.06 µg/mL (≈ 0.181 µM) | 34 mm |
